Data set [1] is described as follows: Plasma protein binding assay (ultrafiltration, Centrifree). The class given is in vitro ADME. The conditions noted are these: male SD rat plasma, n = 3. The protocol:
The plasma protein binding of FMN, DZN, DHD and EQL was estimated using Ultra-filtration method using Centrifree® micro-partition system (Amicon Inc., Lexington, MA, USA). The experiment was conducted at concentrations of 50, 150, 500 and 1000 ng/mL (n = 3) for all four compounds in male SD rat plasma. The spiked plasma samples were allowed to equilibrate for at least 15 min before it was put into Centrifree® ultrafiltration tubes. The tubes were centrifuged at 1000× g for 15 min at 37 °C. Then, compound concentrations in the ultrafiltrate buffer (CUF) and plasma in the sample reservoir (Ctotal) were quantitated by the anlytical method described in Section 2.3. The plasma protein binding rate was calculated using the following formula: Plasma protein binding (%)=[…]

Data set [2] can be described thus: Pharmacokinetic evaluation after oral administration of FMN solution and formulations (non-compartmental analysis). Conditions: 20 mg/kg FMN, all three groups.
Description: The animals were maintained in the temperature and humidity range of 25 ± 1 °C and 50 ± 5% RH, respectively, over the acclimation period. To minimize the effects of food on pharmacokinetic profile of isoflavones, the animals were fasted overnight with free access to water.
Animals were allocated equally into 3 groups (5 rats per group). […] The blood samples were immediately centrifuged (10,000× g, 10 min, 4 °C) to obtain plasma samples and was stored at −80 °C.
Determination of the four isoflavones and DZN-d4 (internal standard, IS) in samples were conducted using Acquity UPLC system (Waters Corp., Milford, MA, USA) coupled to Xevo TQ-S triple quadrupole mass spectrometry (Waters Corp., USA) with electrospray (ESI) source. The chromatographic separations of the four isoflavones was performed in a Kinetex C18 column (2.1 × 100 mm, 1.7 μm particle size, Phenomenex, Torrance, CA, USA) at 40 ± 0.5 °C. The mobile phase consisted of water (mobile phase A) and acetonitrile (mobile phase B) with gradient elution at a flow rate of 0.2 mL/min. […] The optimized collision energy of FMN, DZN, DHD, EQL and IS were −22, −38, −22, −15 and −38, respectively. Data acquisition and analysis were achieved using Masslynx 4.1 software (Waters Corp., USA).
The samples were extracted by protein precipitation using methanol. 50 μL of rat samples were added with 10 μL of the IS solution (10 μg/mL of DZN-d4 in 50% methanol) to correct the loss of analytes during sample preparation. 100 μL of methanol was added to the mixed sample, vortexed for 1 min and centrifuged at 15,000× g for 5 min. Then, 5 μL of aliquots were injected into the UPLC-MS/MS system. The method validation was performed according to the FDA guideline for industry bioanalytical method validation.
PK parameters such as the maximum plasma concentration (Cmax) and the time to reach Cmax (Tmax) were determined from plasma concentration-time curve. The linear trapezoidal rule was used to calculate area under the curve to the final measured concentration (AUC0-t), then area from Clast to area expolated to infinity was added to AUC0-t to integrate AUC0-∞. […] The PK analysis was performed using WinNonlin® software (version 8.2, Certara™ Company, Princeton, NJ, USA). Then, a PK model was developed for FMN and its metabolites following oral administration of solution or formulations. The model was implemented in the WinNonlin model with NLME engine and estimated using the naïve-pooled and First Order Conditional Estimation-Extended Least Squares (FOCE-ELS) algorithms. […]
In another data set the test system is human serum albumin. Conditions: concentration levels of 3–15 μM DZN, ref Song et al. 23; cited from earlier work.
On the set-up of data set [3]: method as in PMID 12714433. The conditions noted are these: humans; cited from earlier work.
On the set-up of data set [4]: method as in PMID 21266188. Conditions: female rat plasma, cited from earlier work.
For data set [5] the following is noted: cited from earlier work.
Setting [6] is: oral 20 mg/kg FMN dissolved in 0.5% CMC-Na, male Sprague Dawley rats.

SMILES strings stand for the structures. Read-outs that look alike come from different tables or passages of the source.

Turning to `O=C1c2ccc(O)cc2OCC1c1ccc(O)cc1` (stereo not shown) [DHD, Dihydrodaidzein], in data set [1], the fraction unbound (as a rule, the share of the substance not bound to proteins or other matrix) at 15 min, 50 ng/mL is 0.118; the fraction unbound at 15 min, 150 ng/mL is 0.126; the fraction unbound at 15 min, 500 ng/mL was 0.12; the fraction unbound at 15 min, 1000 ng/mL is 0.132. For the same compound, the “Detection of analyte in rat plasma after oral administration of FMN” value (from here on “Detection of analyte in rat plasma”) in data set [2] is given as “not quantitated”.

In data set [1], `O=c1c(-c2ccc(O)cc2)coc2cc(O)ccc12` [DZN, Daidzein] had a free fraction (fraction unbound) at 15 min, 50 ng/mL of 0.0456; a fraction unbound at 15 min, 150 ng/mL of 0.0342; a fraction unbound at 15 min, 500 ng/mL of 0.0569; a fraction unbound at 15 min, 1000 ng/mL of 0.0531. Further, the “unbound DZN” value in the data set on human serum albumin is 0.889 to 6.398 µM. Moreover, in data set [2], the “Detection of analyte in rat plasma” value is recorded as “detected”.

In the case of `Oc1ccc([C@H]2COc3cc(O)ccc3C2)cc1` [EQL, Equol], in data set [1], the fraction unbound at 15 min, 150 ng/mL is 0.0131; the fraction unbound at 15 min, 500 ng/mL was 0.0138; the fraction unbound at 15 min, 1000 ng/mL was 0.022. For the same compound, the “Detection of analyte in rat plasma” value in data set [2] is listed as “not quantitated”.

In data set [1], `COc1ccc(-c2coc3cc(O)ccc3c2=O)cc1` [FMN, Formononetin] had a fraction unbound at 15 min, 50 ng/mL of 0.116; a fraction unbound at 15 min, 150 ng/mL of 0.0664; a fraction unbound at 15 min, 500 ng/mL of 0.145; a fraction unbound at 15 min, 1000 ng/mL of 0.082. Also, the FMN excreted intact entry in data set [3] is on record as “about 25%”. Moreover, the “Detection of analyte in rat plasma” value in data set [2] is listed as “detected”. Moreover, in data set [4] (50 ng/mL), the Plasma protein binding was 93.61 ± 0.44%. Moreover, the Plasma protein binding in data set [4] (150 ng/mL) was 96.14 ± 0.15%. Further, the “Time at which the peak plasma concentration was reached” value in data set [5] (2–50 mg/kg FMN orally administered, rats) is 0.5 to 1 h. For the same compound, the “oral bioavailability (F)” value in data set [5] (FMN solution dissolved in 0.5% CMC-Na, rats) was 21.8%. Moreover, in data set [5] (intravenous administration, rats), the “clearance of FMN” value is 83 mL/min/kg. In data set [5] (setting [6]), the AUCinf is 0.7577 ± 0.0482 µM·h and the Cmax (usually the highest concentration seen after dosing) is 302 ± 35.9 nM.

(Values after PMC9860708, “Parent-Metabolite Pharmacokinetic Modeling of Formononetin and Its Active Metabolites in Rats after Oral Administration of Formononetin Formulations” (Pharmaceutics, 2022).)
